Experimental data taken from PubChem BioAssay (NCI).
“And” between values parts separate entries of the source, which are not always exact repeats. Equal values may be shown once.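 The compound was tested at five concentrations on cells cultured in 96-well plates, with a 48-hour exposure period. GI50: concentration for 50% inhibition of growth. TGI denotes the concentration required for complete inhibition of growth.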

How the values were obtained:
Test in all cases: growth of human tumour cells (NCI), 48 h
[1] = tested on: COLO 205 colon
[2] = tested on: DLD-1 colon
[3] = tested on: DMS 114 small cell lung
[4] = tested on: DMS 273 small cell lung
[5] = tested on: KM20L2 colon
[6] = tested on: M19-MEL melanoma
[7] = tested on: SF-295 CNS
[8] = tested on: SK-OV-3 ovarian
[9] = tested on: SR leukemia
[10] = tested on: TK-10 renal
[11] = tested on: SNB-78 CNS
[12] = tested on: XF 498 CNS

NC(=S)N/N=C/c1nccc2ccccc12
TGI [1]: > 100 µM | TGI [2]: > 100 µM | TGI [3]: 2.51 µM | TGI [4]: 12.9 µM | TGI [5]: > 100 µM | TGI [6]: 3.41 µM | TGI [7]: 2.03 µM | TGI [8]: 8.52 µM | TGI [9]: 11.5 µM | TGI [10]: > 100 µM

COc1cc([C@@H]2c3cc4c(c(O)c3C[C@H]3COC(=O)[C@@H]32)OCO4)cc(OC)c1OC
GI50 [1]: 0.239 µM | GI50 [2]: 0.0646 nM | TGI [3]: 1.5 µM | TGI [4]: 1.5 µM | TGI [5]: 0.522 µM | GI50 [6]: 0.000137 µM | GI50 [7]: 0.109 µM | GI50 [8]: 0.183 µM | GI50 [11]: 0.011 nM | GI50 [9]: 1.46 µM and 0.812 µM | GI50 [10]: 0.505 µM | TGI [10]: 37.5 µM and 167 µM and > 100 µM | TGI [12]: 0.0887 µM

Cc1[nH]c(=O)nc2c1C(NCCCN(C)C)c1cc(Cl)ccc1N2 (stereo not given)
TGI [1]: 26 µM | TGI [2]: 35.3 µM | TGI [3]: 28.2 µM | TGI [4]: 25.3 µM | TGI [5]: 24.4 µM | TGI [6]: 12.9 µM | TGI [7]: 30.7 µM | TGI [8]: 32.1 µM | TGI [11]: 33.2 µM | TGI [9]: 27.3 µM | TGI [10]: 32.5 µM | TGI [12]: 30.8 µM

CC1=NN(C(=O)c2ccccc2O)C(=O)/C1=C/c1cccc(O)c1
TGI [1]: > 86.9 µM | TGI [2]: > 100 µM | TGI [5]: > 100 µM | TGI [6]: > 100 µM | TGI [7]: > 100 µM | TGI [8]: > 100 µM | TGI [11]: > 100 µM | TGI [9]: > 100 µM | TGI [10]: > 100 µM | TGI [12]: > 100 µM

Cc1nc2c(c(=O)[nH]1)S/C(=C(/C#N)c1nc3ccccc3[nH]1)N2c1ccccc1
TGI [1]: > 100 µM | TGI [2]: > 100 µM | TGI [3]: > 100 µM | TGI [4]: > 100 µM | TGI [5]: > 100 µM | TGI [6]: > 100 µM | TGI [7]: > 100 µM | TGI [8]: > 100 µM | TGI [11]: > 100 µM | TGI [9]: > 100 µM | TGI [10]: > 100 µM | TGI [12]: > 100 µM

C=C(C)C(=O)O[C@H]1CC2=C[C@@H](C[C@@]3(C)O[C@@H]3[C@H]3OC(=O)C(=C)[C@@H]31)OC2=O
TGI [1]: 3.4 µM | TGI [2]: 3.3 µM | TGI [3]: 9.35 µM | TGI [4]: 8.09 µM | TGI [5]: 10.5 µM | TGI [6]: 6.52 µM | TGI [7]: 11.9 µM | TGI [8]: 34.9 µM | GI50 [11]: 1270 nM | TGI [11]: 300 µM

Nc1ccccc1Nc1ccccc1C(=O)[O-].Nc1ccccc1Nc1ccccc1C(=O)[O-].[Zn+2]
TGI [1]: > 100 µM | TGI [5]: > 100 µM | TGI [7]: > 100 µM | TGI [8]: > 100 µM | TGI [10]: > 100 µM | TGI [12]: 78.7 µM

COc1ccccc1C1C(Cl)C(=O)N1n1cnc2ccccc2c1=O (stereo not given)
TGI [1]: > 100 µM | TGI [2]: > 100 µM | TGI [3]: > 100 µM | TGI [4]: > 100 µM | TGI [5]: > 100 µM | TGI [6]: > 100 µM | TGI [7]: > 100 µM | TGI [8]: > 100 µM | TGI [11]: > 100 µM | TGI [9]: > 100 µM | TGI [10]: > 100 µM | TGI [12]: > 100 µM

NC(=O)C(=O)c1ncn(Cc2ccccc2)c1N
TGI [1]: > 100 µM | TGI [7]: > 100 µM | TGI [8]: > 100 µM | TGI [9]: > 100 µM | TGI [10]: > 100 µM

CCCCc1ccc(Nc2nc(Cl)c3ncn(COCCOC(C)=O)c3n2)cc1
TGI [1]: 48.5 µM | TGI [7]: 33.9 µM | TGI [8]: 76.9 µM | TGI [9]: 53.8 µM | TGI [10]: 35.1 µM
